Laboratory results: article PMC7765794 (Nutrients, 2020)

How the values were obtained:
[1] = test system: ODC-empty HL-60 cells; test: Cell growth and apoptosis in HL-60 cells with ODC-empty vector; assay type: cell-based, human; conditions: 50 μM baicalein or 75 µM myricetin; for cell growth of ODC-empty HL-60 cells (in words): 24 h
Procedure: (§1) Cells (2 × 10^6/mL) were seeded into 60-mm Petri dishes and incubated at 37 °C. The cells were harvested by treatment with 5 µM rottlerin. Viable cells were counted using the trypan blue exclusion method. The cell suspension was mixed on a slide with an equal volume of acridine orange solution (10 mg/mL). Green fluorescence was detected between 500 and 525 nm with a fluorescence microscope (Zeiss, Oberkochen, Germany). The ODC-empty vector (pcDNA3-ODC-empty) and ODC-overexpressing vector (pcDNA3-ODC-WT) were transfected into parental HL-60 cells according to calcium phosphate-mediated transfection. Stably transfected cells were selected with the antibiotic G418 (400 μg/mL). After three weeks, the isolated G418-resistant clones were individually selected to analyze the protein expression of ODC in the cells. Cells were harvested and lysed overnight in digestion buffer (0.5% sarkosyl, 0.5 mg/mL proteinase K, 50 mM Tris-HCl, pH 8.0 and 10 mM ethylenediamine tetraacetic acid (EDTA) at 55 °C). Subsequently, cells were treated with 0.5 μg/mL RNase A for 2 h. Genomic DNA was extracted by phenol/chloroform/isoamyl alcohol extraction and analyzed by gel electrophoresis using 2% agarose.

[2] = test system: Jurkat cells; test: Cell growth and apoptosis in Jurkat cells; assay type: cell-based, human; conditions: for growth of Jurkat cells (in words): 100 µM baicalein or 75 µM myricetin (Figure S5); for apoptosis of Jurkat cells (in words): 100 µM baicalein or myricetin (Figure S5)
Procedure: The human promyelocytic leukemia HL-60 and human acute Jurkat T cell leukemia cell lines were grown in 90% RPMI 1640 medium supplemented with 10% fetal bovine serum (FBS) at a temperature of 37 °C under a humidified 5% CO2 atmosphere. These cell lines were approved by short tandem repeat profiling, and the cells were passaged for no more than 2 months.
Cells (2 × 10^6/mL) were seeded into 60-mm Petri dishes and incubated at 37 °C. The cells were harvested by treatment with 5 µM rottlerin. Viable cells were counted using the trypan blue exclusion method. The cell suspension was mixed on a slide with an equal volume of acridine orange solution (10 mg/mL). Green fluorescence was detected between 500 and 525 nm with a fluorescence microscope (Zeiss, Oberkochen, Germany).
Cells were harvested and lysed overnight in digestion buffer (0.5% sarkosyl, 0.5 mg/mL proteinase K, 50 mM Tris-HCl, pH 8.0 and 10 mM ethylenediamine tetraacetic acid (EDTA) at 55 °C). Subsequently, cells were treated with 0.5 μg/mL RNase A for 2 h. Genomic DNA was extracted by phenol/chloroform/isoamyl alcohol extraction and analyzed by gel electrophoresis using 2% agarose.
(C) and (D) Apoptotic bodies […]
(1 picture or pasted object on this page, not shown here)

[3] = target: T1, human ODC (Homo sapiens, UniProt P11926); test: ODC enzyme activity assay and inhibition study (CO2-L3K coupled spectrophotometric assay); assay type: biochemical; conditions: for IC50: purified human ODC, 37 °C, 10 mM ornithine, 0.2 mM PLP, n = 3, read-out: IC50 to ornithine decarboxylase (ODC);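 for all read-outs here: His-tagged human ODC expressed in Escherichia coli, activity followed as decarboxylation coupled via PEP carboxylation and malate formation to NADH analog oxidation, absorbance drop at 405 nm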
T1 construct: His-tag (N); made in house; host or cells: Escherichia coli JM109
T1 sequence (P11926 1-461): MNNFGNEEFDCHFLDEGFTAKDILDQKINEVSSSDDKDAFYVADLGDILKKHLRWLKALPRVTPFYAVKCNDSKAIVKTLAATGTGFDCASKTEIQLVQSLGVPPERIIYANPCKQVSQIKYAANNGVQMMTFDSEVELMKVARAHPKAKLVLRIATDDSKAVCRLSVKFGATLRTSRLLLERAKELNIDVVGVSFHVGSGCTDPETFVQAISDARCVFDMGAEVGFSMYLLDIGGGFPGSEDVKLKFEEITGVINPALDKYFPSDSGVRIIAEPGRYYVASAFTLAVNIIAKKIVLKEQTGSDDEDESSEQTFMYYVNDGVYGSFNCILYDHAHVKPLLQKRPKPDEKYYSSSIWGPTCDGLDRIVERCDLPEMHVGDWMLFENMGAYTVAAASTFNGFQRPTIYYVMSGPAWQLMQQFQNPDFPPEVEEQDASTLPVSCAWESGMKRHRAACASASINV

[4] = test system: HL-60 cells; test: Cell viability (trypan blue), acridine orange staining and DNA fragmentation in HL-60 cells; assay type: cell-based, human; conditions: for apoptosis in HL-60 cells (apoptotic bodies, DNA fragmentation): 50 μM baicalein or up to 75 µM myricetin, 24 h; for IC50: Homo sapiens, HL-60, after 24 h, viable cell count
Procedure: The human promyelocytic leukemia HL-60 and human acute Jurkat T cell leukemia cell lines were grown in 90% RPMI 1640 medium supplemented with 10% fetal bovine serum (FBS) at a temperature of 37 °C under a humidified 5% CO2 atmosphere. These cell lines were approved by short tandem repeat profiling, and the cells were passaged for no more than 2 months. Cells (2 × 10^6/mL) were seeded into 60-mm Petri dishes and incubated at 37 °C. The cells were harvested by treatment with 5 µM rottlerin. Viable cells were counted using the trypan blue exclusion method. The cell suspension was mixed on a slide with an equal volume of acridine orange solution (10 mg/mL). Green fluorescence was detected between 500 and 525 nm with a fluorescence microscope (Zeiss, Oberkochen, Germany). Cells were harvested and lysed overnight in digestion buffer (0.5% sarkosyl, 0.5 mg/mL proteinase K, 50 mM Tris-HCl, pH 8.0 and 10 mM ethylenediamine tetraacetic acid (EDTA) at 55 °C). Subsequently, cells were treated with 0.5 μg/mL RNase A for 2 h. Genomic DNA was extracted by phenol/chloroform/isoamyl alcohol extraction and analyzed by gel electrophoresis using 2% agarose.

[5] = test system: ODC-WT HL-60 cells; test: Cell growth and apoptosis in ODC-overexpressing HL-60 cells; assay type: cell-based, human; conditions: for apoptosis in ODC-WT HL-60 cells (in words): 50 μM baicalein or 75 µM myricetin
Procedure: as §1, with “The cells were harvested by treatment with 5 µM rottlerin.” left out

O=c1cc(-c2ccccc2)oc2cc(O)c(O)c(O)c12 [Baicalein, 5,6,7-trihydroxyflavone]
apoptosis in ODC-empty HL-60 cells (in words) [1]: appearance of apoptotic bodies and DNA fragmentation | cell growth of ODC-empty HL-60 cells (in words) [1]: growth arrest | growth of Jurkat cells (in words) [2]: suppressed the growth of Jurkat cells | apoptosis of Jurkat cells (in words) [2]: induced cellular apoptosis with DNA fragmentation | IC50 [3]: 0.88 µM | Ki ([3]; with respect to substrate L-ornithine, noncompetitive fit, read-out: Ki(ornithine) against ODC): 0.64 ± 0.18 µM | apoptosis in HL-60 cells (apoptotic bodies, DNA fragmentation) [4]: exhibited apoptosis | IC50 [4]: ~50 µM | cell death / growth suppression in HL-60 cells (in words) ([4]; baicalein 0–70 μM): cell death was dose-dependent | apoptosis in ODC-WT HL-60 cells (in words) [5]: normal cell morphology and slight DNA fragmentation | cell growth of ODC-WT HL-60 cells (in words) ([5]; 50 μM baicalein, 24 h): growth arrest

O=c1c(O)c(-c2cc(O)c(O)c(O)c2)oc2cc(O)cc(O)c12 [Myricetin]
apoptosis in ODC-empty HL-60 cells (in words) [1]: induced apoptotic bodies in ODC-empty cells | cell growth of ODC-empty HL-60 cells (in words) [1]: more effective than in ODC-WT HL-60 cells | growth of Jurkat cells (in words) [2]: suppressed the growth of Jurkat cells | apoptosis of Jurkat cells (in words) [2]: induced cellular apoptosis with DNA fragmentation | IC50 [3]: 7.3 µM | apoptosis in HL-60 cells (apoptotic bodies, DNA fragmentation) [4]: induced apoptosis | IC50 [4]: ~75 µM | apoptosis in ODC-WT HL-60 cells (in words) [5]: but not in ODC-WT HL-60 cells
